Columns and labels:
BACE1 [1] = target: T1, BACE1 (Homo sapiens, UniProt P56817); assay: In Vitro Enzymatic BACE FRET (Fluorescence Resonance Energy Transfer) Assay; type: biochemical; conditions: Table IV, class symbols; read-out: BACE1 FRET assay
In short: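 Buffer: 0.05 M acetate, pH 4.2, 10% DMSO final, 100 uM genapol. Start: FRET substrate 50 nM. Incubation 1 h. Stop: Tris to neutral pH. Read: fluorescence.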

BACE1 [2] = target: T1, BACE1; assay: In Vitro BACE Cell-based Assay (HEK cell assay): Aβ40 in conditioned medium of cells stably expressing Amyloid Precursor Protein, sandwich ELISA; conditions: Table IV, class symbols; read-out: HEK cell assay
In short: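 First, APP-stable cells grow 24 h at 37° C., 5% CO2. Next, test compounds are added for 24 h (10 doses, 0.1% DMSO). Finally, medium Aβ40 is determined by pAb40/6E10 sandwich ELISA with Europium TRF, and IC50 is calculated.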

[3] = tested on: amyloid beta peptide (A-beta) in cerebrospinal fluid and brain; assay: In Vivo Inhibition of Beta-Secretase: reduction of A-beta levels in CSF and brain; conditions: 10 mpk, after 4 hrs, mouse or rat
Description: Several animal models, including mouse, rat, dog, and monkey, may be used to screen for inhibition of beta-secretase activity in vivo following administration of a test compound sample. Animals used in this invention can be wild type, transgenic, or gene knockout animals. […] A separate group of animals receive 2% hydroxypropyl methylcellulose, 1% Tween80 alone, containing no test compound, and serve as a vehicle-control group. At the end of the test period, animals are sacrificed and brain tissues, plasma or cerebrospinal fluid are collected. […] Homogenates are centrifuged at 355,000 g, 4° C. for 30 minutes. CSF or brain supernatants are then analyzed for the presence of A-beta peptide by specific sandwich ELISA assays based on ECL (Electrochemiluminescence) technology. For example, rat Abeta40 is measured using biotinylated-4G8 (Signet) as a capture antibody and Fab40 (an in-house antibody specific to the C-terminal of Abeta40) as a detection antibody.

T1 sequence (P56817 46-501, species assumed): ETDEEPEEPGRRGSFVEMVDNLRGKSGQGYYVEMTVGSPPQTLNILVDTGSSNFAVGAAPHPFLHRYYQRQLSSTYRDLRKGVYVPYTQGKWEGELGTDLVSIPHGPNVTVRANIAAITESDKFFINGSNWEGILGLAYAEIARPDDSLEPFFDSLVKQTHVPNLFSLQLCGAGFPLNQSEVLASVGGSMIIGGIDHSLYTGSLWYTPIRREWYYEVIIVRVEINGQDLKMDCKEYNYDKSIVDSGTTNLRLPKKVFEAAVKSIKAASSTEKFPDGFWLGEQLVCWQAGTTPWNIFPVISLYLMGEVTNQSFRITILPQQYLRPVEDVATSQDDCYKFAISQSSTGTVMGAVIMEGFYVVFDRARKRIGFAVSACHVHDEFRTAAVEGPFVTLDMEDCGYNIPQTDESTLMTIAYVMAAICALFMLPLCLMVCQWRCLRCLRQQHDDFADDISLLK

Q: How did the IC50 (BACE1 [1]) turn out when NC1=N[C@@]2(CO1)c1cc(-c3cncnc3)ccc1Oc1cc(F)c(C3=CCOCC3)cc12 [Example 292, (S)-2′-(3,6-dihydro-2H-pyran-4-yl)-3′-fluoro-7′-(pyrimidin-5-yl)-5H-spiro[oxazole-4,9′-xanthen]-2-amine] was run?
A: < 100 nM

Q: What about the IC50 (BACE1 [2]) of the same compound?
A: < 100 nM

Q: And the “percent reduction in CSF A-beta levels” value [3]?
A: 57%

Q: And the “percent reduction in brain A-beta levels” value [3]?
A: 29%

— patent US8426447B2, “Spiro-tricyclic ring compounds as beta-secretase modulators and methods of use” (Amgen Inc., priority 2008, dated 2013)
